Experimental data: US20220110949A1, “A 19-NOR C3,3-DISUBSTITUTED C21-N-PYRAZOLYL STEROID AND METHODS OF USE THEREOF” (Sage Therapeutics, Inc., priority 2017, published 2022)
Marks after values point to notes of the source that are not given here.

Assays:
[1] = tested on: healthy adults, 5-hour phase advance model of insomnia; experiment: Double-blind, placebo-controlled 3-way crossover study; polysomnography (PSG) and subjective sleep measures in a 5-hour phase advance model of insomnia; type: in vivo, human; set-up: LPS decrease from baseline: dose or concentration left out as unconfirmed; conditions: for LPS (min), Median / NAW, Median / SE (%) (sleep efficiency), Median / TST (min), Median / WASO (min), Median / mDURAW (min), Median: PSG; for decrease in median duration of awakenings from baseline: baseline 9.364, awakenings in minutes; for TST median change (increase) from baseline: baseline median 317.00 minutes; for Sleep efficiency (SE) increase from baseline (median): median at baseline 66.042%; for WASO median change from baseline: median at baseline 134.00 minutes; for Subjective Sleep Quality (sSQ) Median (min, max): scale of 1 (poor) to 10 (excellent)
From the text: Example 1. A Randomized, Double-Blind, Multiple Dose, 3-Way Crossover, Exploratory Study to Assess the Pharmacodynamic Effects of Compound 1 Capsules in Healthy Adults Using a 5-Hour Phase Advance Model of Insomnia
Sleep efficiency, defined as the percentage of time in bed spent asleep, as determined by polysomnography (PSG).
This is a double-blind, placebo-controlled, 3-way crossover study (Treatment Periods 1, 2, and 3), followed by an open-label administration of Compound 1 for pharmacokinetic purposes (Treatment Period 4). Subjects are expected to participate in Treatment Periods 1, 2 and 3. These subjects may continue into Treatment Period 4. If necessary, de novo subjects may also be included in Treatment Period 4 (see FIG. 2).
Subjects who meet the sleep diary continuation criteria will return for Visit 2 (Day −7) for a one-night PSG qualification visit. The PSG qualification visit (Visit 2) will begin on Study Day −7 and will continue to Study Day −6. The CRC will determine the median habitual bedtime from their sleep diary. Subjects should arrive at the clinic about 7 hours prior to their habitual bedtime for the one-night PSG qualification visit. Subjects will receive a standard meal and be prepared for overnight PSG recording. Lights out and PSG recording will begin five hours (±30 minutes) earlier than their mean habitual bedtime. Subjects will be required to remain in bed for eight hours, after which time the PSG recording will end, lights will turn on, and subjects will be awakened if asleep. Subjects will complete a Post Sleep Questionnaire about their subjective sleep thirty minutes after the end of the recording. Subjects will be discharged after all morning assessments have been completed at the discretion of the investigator. Subjects will have the option to remain in the clinic (e.g., to sleep at the clinic) until 9 AM.
Treatment Period 1 (Visit 3) begins on Study Day 1 and continues till Study Day 2. Subjects should arrive at the clinic approximately 7 hours prior to their habitual bedtime. Eligibility criteria will be confirmed and subjects will be randomized (1:1:1:1:1:1) to one of six possible treatment sequences (see FIG. 1). Predose assessments will be conducted. Subjects will receive a standard meal and be prepared for overnight PSG recording. Thirty minutes (±15 minutes) prior to lights out, blinded study drug (30 mg Compound 1, 45 mg Compound 1, or placebo) will be administered with food. Lights out and the PSG recording will begin five hours (±30 minutes) prior to their habitual bedtime. Subjects will be required to remain in bed for eight hours, after which time the lights will turn on, and subjects will be awakened if asleep. The PSG recording will end after 5 minutes (±1 minute) of quiet wakefulness is recorded. Subjects should complete a Post Sleep Questionnaire 30 minutes after the end of the recording. Post-PSG safety assessments will be conducted per the Schedule of Assessments. […] Subjects will have the option to remain in the clinic (e.g., to sleep at the clinic) until 9:00 AM.
Treatment Period 2 (Visit 4, Study Days 8 to 9) and Treatment Period 3 (Visit 5, Study Days 15 to 16) will follow similar procedures. Subjects will resume normal sleep patterns and maintain a sleep diary during the washout periods between treatments.
For Treatment Periods 1, 2, and 3, each subject will receive a single dose of study drug (30 mg Compound 1, 45 mg Compound 1, or placebo) on 3 separate visits; each subject will receive each dose level or placebo once. Study subjects who participate in Treatment Period 4 will receive one additional single dose of Compound 1 (30 mg) during one separate study visit.
The Efficacy Set will include all subjects in the Safety Set who have post-dose PSG data. Sleep efficiency will be analyzed using a mixed effects model for repeated measures (MMRM); the model will include treatment, treatment sequence, and period as fixed effects, with adjustment for screening sleep efficiency. […]

healthy adults = experiment: Safety and tolerability (adverse events) in the study of Example 1; type: in vivo, human; conditions: single dose 30 mg or 45 mg
From the text: Frequency, type, severity of adverse events; changes in vital sign assessments, clinical laboratory data, electrocardiogram (ECG) parameters, suicidality assessment via the Columbia Suicide Severity Rating Scale (C-SSRS), sleepiness assessment via Karolinska Sleepiness Scale (KSS), and psychomotor performance assessment via Digit Symbol Substitution Test (DSST)
The safety and tolerability of Compound 1 Capsules will be evaluated by frequency, type, and severity of adverse events; mean changes from baseline in clinical laboratory measures, vital signs, ECGs, suicidal ideation using the C-SSRS, sleepiness using the KSS, and psychomotor performance using the DSST.
Adverse events will be classified by type, incidence, severity, and causality. The overall incidence of adverse events will be summarized by Medical Dictionary for Regulatory Activities (MedDRA) system organ class and preferred term. Data for vital signs, clinical laboratory measurements, ECG, and concomitant medication usage will also be summarized. Suicidality data collected using the C-SSRS at baseline and at each visit during the active Treatment Period will be listed for all subjects. The C-SSRS listings will include behavior type and/or category for suicidal ideation and suicidal behavior of the C-SSRS. Out-of-range safety endpoints may be categorized as low or high, where applicable. […]

With `C[C@@]1(O)CC[C@H]2[C@H](CC[C@@H]3[C@@H]2CC[C@]2(C)[C@@H](C(=O)Cn4cc(C#N)cn4)CC[C@@H]32)C1` [Compound 1] the “Latency to persistent sleep (LPS) (min), Median Difference from Placebo” value ([1]; 30 mg) was -1.50 min, the “Mean Duration of Awakenings (mDURAW) (min), Median Difference from Placebo” value ([1]; 30 mg) was −3.43** min and the “Number of Awakenings (NAW), Median Difference from Placebo” value ([1]; 30 mg) was −1.00. For the same compound, the “REM Sleep” value ([1]; 30 mg) was 50.15 min, the “Sleep Efficiency (SE) (%), Median Difference from Placebo” value ([1]; 30 mg) was 11.35* % and the “Stage N1” value ([1]; 30 mg) was 20.11 min. For the same compound, the “Stage N2” value ([1]; 30 mg) was 258.16 min, the “Stage N3 (SWS)” value ([1]; 30 mg) was 68.38 min and the “Subjective Sleep Latency (sSL) (min) Median (min, max)” value ([1]; 30 mg) was 15 (2, 240) min. The “Subjective TST (sTST) (min) Median (min, max)” value ([1]; 30 mg) was 450.0 (40, 555) min, the “Subjective WASO (sWASO) (min) Median (min, max)” value ([1]; 30 mg) was 10.0 (0, 120) min and the “Total sleep time (TST) (min), Median Difference from Placebo” value ([1]; 30 mg) was 54.50* min. For the same compound, the “Wakefulness after sleep onset (WASO (min), Median Difference from Placebo)” value ([1]; 30 mg) was −22.00* min, the “effect on REM sleep” value ([1]; 30 mg and 45 mg) was “did not disrupt REM sleep” and the “LPS (min), Median” value ([1]; 30 mg single evening dose) was 13.25 min. The “NAW, Median” value ([1]; 30 mg single evening dose) was 8.00, the “SE (%) (sleep efficiency), Median” value ([1]; 30 mg single evening dose) was 84.64% and the “TST (min), Median” value ([1]; 30 mg single evening dose) was 406.25 min. The “WASO (min), Median” value ([1]; 30 mg single evening dose) was 55.00 min, the “mDURAW (min), Median” value ([1]; 30 mg single evening dose) was 4.23 min and the “decrease in median duration of awakenings from baseline” value ([1]; 30 mg) was 2.629. The “TST median change (increase) from baseline” value ([1]; 30 mg) was 85.25 min, the “Sleep efficiency (SE) increase from baseline (median)” value ([1]; 30 mg) was 17.761% and the “WASO median change from baseline” value ([1]; 30 mg) was -74.75 min. For the same compound, the “LPS decrease from median baseline” value ([1]; 30 mg, median baseline 28.50) was 13.25 min, the “Subjective Sleep Quality (sSQ) Median (min, max)” value ([1]; 30 mg) was 8.0 (5, 10) and the “Latency to persistent sleep (LPS) (min), Median Difference from Placebo” value ([1]; 45 mg) was -1.00 min. For the same compound, the “Mean Duration of Awakenings (mDURAW) (min), Median Difference from Placebo” value ([1]; 45 mg) was −1.50+ min, the “Number of Awakenings (NAW), Median Difference from Placebo” value ([1]; 45 mg) was −2.00 and the “REM Sleep” value ([1]; 45 mg) was 43.54 min. The “Sleep Efficiency (SE) (%), Median Difference from Placebo” value ([1]; 45 mg) was 12.61* %, the “Stage N1” value ([1]; 45 mg) was 19.58 min and the “Stage N2” value ([1]; 45 mg) was 266.79 min. For the same compound, the “Stage N3 (SWS)” value ([1]; 45 mg) was 74.71 min, the “Subjective Sleep Latency (sSL) (min) Median (min, max)” value ([1]; 45 mg) was 10 (1, 60) min and the “Subjective TST (sTST) (min) Median (min, max)” value ([1]; 45 mg) was 465.0 (0, 510) min. For the same compound, the “Subjective WASO (sWASO) (min) Median (min, max)” value ([1]; 45 mg) was 5.0 (0, 300) min, the “Total sleep time (TST) (min), Median Difference from Placebo” value ([1]; 45 mg) was 60.50* min and the “Wakefulness after sleep onset (WASO (min), Median Difference from Placebo)” value ([1]; 45 mg) was −55.50* min. The “LPS (min), Median” value ([1]; 45 mg single evening dose) was 14.25 min, the “NAW, Median” value ([1]; 45 mg single evening dose) was 7.00 and the “SE (%) (sleep efficiency), Median” value ([1]; 45 mg single evening dose) was 87.55%. For the same compound, the “TST (min), Median” value ([1]; 45 mg single evening dose) was 420.25 min, the “WASO (min), Median” value ([1]; 45 mg single evening dose) was 42.50 min and the “mDURAW (min), Median” value ([1]; 45 mg single evening dose) was 3.67 min. The “decrease in median duration of awakenings from baseline” value ([1]; 45 mg) was 4.261, the “TST median change (increase) from baseline” value ([1]; 45 mg) was 96.00 min and the “Sleep efficiency (SE) increase from baseline (median)” value ([1]; 45 mg) was 20.000%. For the same compound, the “WASO median change from baseline” value ([1]; 45 mg) was -75.25 min, the “Subjective Sleep Quality (sSQ) Median (min, max)” value ([1]; 45 mg) was 9.0 (6, 10) and the “LPS decrease from baseline” value ([1]; median baseline 28.50) was 14.50 min. The “impact on latency to persistent sleep (LPS)” value ([1]; single dose capsule of 30 mg or 45 mg in the evening) was “did not impact”, the “intensity of adverse events” value (healthy adults) was “mild” and the “serious or severe adverse events” value (healthy adults) was “no serious or severe adverse events were observed”.
